Assay results reported in the NIST ThermoML archive (doi:10.1016/j.jct.2013.03.013).

Conditions: Liquid, Vibrating wire viscometry

Cc1ccccc1 [toluene]
viscosity [mPa·s]
Conditions | 273.13 K | 298.15 K | 323.16 K | 343.16 K | 363.16 K
1000 kPa | 0.7735 | 0.5573 | 0.4222 | 0.3495 | 0.2941
5000 kPa | 0.7996 | 0.5744 | 0.4359 | 0.3611 | 0.3047
10000 kPa | 0.832 | 0.5969 | 0.4531 | 0.3757 | 0.3173
20000 kPa | 0.8994 | 0.6394 | 0.4894 | 0.4054 | 0.3436
30000 kPa | 0.969 | 0.6892 | 0.5242 | 0.4367 | 0.3694

F/C=C/C(F)(F)F [trans-1,3,3,3-tetrafluoropropene]
Conditions | viscosity [mPa·s]
243.16 K, 61 kPa | 0.3906
243.16 K, 1000 kPa | 0.395
243.16 K, 3000 kPa | 0.4028
243.16 K, 5000 kPa | 0.4116
243.16 K, 10000 kPa | 0.4321
243.16 K, 15000 kPa | 0.4532
243.16 K, 20000 kPa | 0.4742
243.16 K, 25000 kPa | 0.4951
243.16 K, 30000 kPa | 0.517
253.16 K, 97 kPa | 0.3409
253.16 K, 1000 kPa | 0.3462
253.16 K, 3000 kPa | 0.3538
253.16 K, 5000 kPa | 0.3613
253.16 K, 10000 kPa | 0.381
253.16 K, 15000 kPa | 0.3999
253.16 K, 20000 kPa | 0.4192
253.16 K, 25000 kPa | 0.4374
253.16 K, 30000 kPa | 0.4554
263.16 K, 148 kPa | 0.2942
263.16 K, 1000 kPa | 0.3043
263.16 K, 3000 kPa | 0.3119
263.16 K, 5000 kPa | 0.3189
263.16 K, 10000 kPa | 0.3358
263.16 K, 15000 kPa | 0.3534
263.16 K, 20000 kPa | 0.3707
263.16 K, 25000 kPa | 0.3875
263.16 K, 30000 kPa | 0.4047
273.15 K, 217 kPa | 0.2572
273.15 K, 1000 kPa | 0.2626
273.15 K, 3000 kPa | 0.2702
273.15 K, 5000 kPa | 0.2776
273.15 K, 10000 kPa | 0.2949
273.15 K, 15000 kPa | 0.3127
273.15 K, 20000 kPa | 0.3284
273.15 K, 25000 kPa | 0.3451
273.15 K, 30000 kPa | 0.3616
283.14 K, 308 kPa | 0.2271
283.14 K, 1000 kPa | 0.2318
283.14 K, 3000 kPa | 0.2383
283.14 K, 5000 kPa | 0.2442
283.14 K, 10000 kPa | 0.2602
283.14 K, 15000 kPa | 0.2755
283.14 K, 20000 kPa | 0.2908
283.14 K, 25000 kPa | 0.3061
283.14 K, 30000 kPa | 0.3203
293.15 K, 428 kPa | 0.2016
293.15 K, 1000 kPa | 0.2035
293.15 K, 3000 kPa | 0.2097
293.15 K, 5000 kPa | 0.216
293.15 K, 10000 kPa | 0.2315
293.15 K, 15000 kPa | 0.2459
293.15 K, 20000 kPa | 0.2606
293.15 K, 25000 kPa | 0.2741
293.15 K, 30000 kPa | 0.2877
303.15 K, 579 kPa | 0.179
303.15 K, 1000 kPa | 0.1816
303.15 K, 3000 kPa | 0.1875
303.15 K, 5000 kPa | 0.1933
303.15 K, 10000 kPa | 0.2085
303.15 K, 15000 kPa | 0.2227
303.15 K, 20000 kPa | 0.2364
303.15 K, 25000 kPa | 0.2495
303.15 K, 30000 kPa | 0.2625
313.14 K, 767 kPa | 0.1587
313.14 K, 1000 kPa | 0.1601
313.14 K, 3000 kPa | 0.1663
313.14 K, 5000 kPa | 0.1728
313.14 K, 10000 kPa | 0.1873
313.14 K, 15000 kPa | 0.2008
313.14 K, 20000 kPa | 0.2151
313.14 K, 25000 kPa | 0.2283
313.14 K, 30000 kPa | 0.2401
323.16 K, 998 kPa | 0.1405
323.16 K, 3000 kPa | 0.1479
323.16 K, 5000 kPa | 0.1539
323.16 K, 10000 kPa | 0.1687
323.16 K, 15000 kPa | 0.183
323.16 K, 20000 kPa | 0.1968
323.16 K, 25000 kPa | 0.2093
323.16 K, 30000 kPa | 0.221
333.16 K, 1277 kPa | 0.1239
333.16 K, 3000 kPa | 0.1305
333.16 K, 5000 kPa | 0.1373
333.16 K, 10000 kPa | 0.1527
333.16 K, 15000 kPa | 0.1671
333.16 K, 20000 kPa | 0.1796
333.16 K, 25000 kPa | 0.1914
333.16 K, 30000 kPa | 0.2033
343.16 K, 1611 kPa | 0.1085
343.16 K, 3000 kPa | 0.115
343.16 K, 5000 kPa | 0.1227
343.16 K, 10000 kPa | 0.1383
343.16 K, 15000 kPa | 0.1527
343.16 K, 20000 kPa | 0.1657
343.16 K, 25000 kPa | 0.1773
343.16 K, 30000 kPa | 0.1888
353.16 K, 2008 kPa | 0.0939
353.16 K, 3000 kPa | 0.0993
353.16 K, 5000 kPa | 0.1072
353.16 K, 10000 kPa | 0.1241
353.16 K, 15000 kPa | 0.139
353.16 K, 20000 kPa | 0.1516
353.16 K, 25000 kPa | 0.1638
353.16 K, 30000 kPa | 0.1749
363.16 K, 2475 kPa | 0.079
363.16 K, 3000 kPa | 0.0833
363.16 K, 5000 kPa | 0.0932
363.16 K, 10000 kPa | 0.1125
363.16 K, 15000 kPa | 0.1273
363.16 K, 20000 kPa | 0.1401
363.16 K, 25000 kPa | 0.1516
363.16 K, 30000 kPa | 0.1622
373.17 K, 3026 kPa | 0.0632
373.17 K, 5000 kPa | 0.0809
373.17 K, 10000 kPa | 0.1013
373.17 K, 15000 kPa | 0.1155
373.17 K, 20000 kPa | 0.1286
373.17 K, 25000 kPa | 0.1403
373.17 K, 30000 kPa | 0.1514
